Assays:
Assay type in all cases: cell-based, mouse
Wnt11-RFP UB organoid [1] = experiment: Stage III 1st round screening of growth factors and small molecules for UB organoid culture condition; conditions: for Wnt11-RFP / Organoid growth: reagent added to FGF9 + C3 + TTNPB + GDNF, compared to that control group; for Effect when used individually: individual versus combinatorial use of JAKI and SB202190
Source text: We employed this Wnt11-RFP reporter system as a readout to screen for a culture condition that maintained the progenitor identity of UPCs in vitro. T-shaped UBs were manually isolated from E11.5 kidneys of Wnt11-RFP mice, and immediately embedded into Matrigel to set up a 3D culture platform that supported epithelial branching. In this 3D culture format, built on previous efforts towards the ex vivo culture of UB, hundreds of different combinations of growth factors and small molecules were tested (see also the Materials and Techniques section below for details under subheading “Screening for optimal UB culture condition”).
We systematically screened the optimal UB culture condition in four different stages (Stages I-IV).
In Stage III, based on the optimized recipe consisting of FGF9, TTNPB, CHIR99021 (3 μM) and GDNF, we preformed our 1st round of screening of growth factors and small molecules targeting major developmental pathways (e.g. TGF-β, BMP, Wnt, FGF, Hedgehog and Notch) and others. The branching morphogenesis, growth rate and Wnt11-RFP were recorded as readouts (Table 1). […] Representative images were taken at least for LDN193189, A83-01, and R-Spondin 1. These individual hits were then subjected to a 2nd round of screening to test their effects in various combinations, eventually leading to the identification of the optimal UB progenitor culture medium UBCM consisting of FGF9, TTNPB, CHIR99021 (3 μM), GDNF, LDN193189, A83-01, R-Spondin1, JAKI and SB202190.

UB organoids = experiment: 2nd round of CD differentiation condition screening (qRT-PCR of Aqp2 and Foxi1); conditions: for Foxi1 expression / Aqp2 expression: qRT-PCR, 7 days, under hBI+FGF9+Y27632 condition
Description: The functions of the mature renal CD system are carried out by two major cell populations that are intermingled throughout the entire CD network. The more abundant principal cells (PCs) concentrate the urine and regulate Na^+/K^+ homeostasis via water and Na^+/K^+ transporters. The less abundant α- and β-intercalated cells (ICs) regulate normal acid-base homeostasis via secretion of H^+ or HCO3^− into the urine. The absence of an in vitro system recapitulating PC and IC development in an appropriate 3D context, constrains physiological exploration, disease modeling and drug screening on the renal CD system. With this limitation in mind, we developed a screen to establish conditions supporting the differentiation of CD organoids, assaying expression of Aqp2 and Foxi1, definitive markers for PC and IC lineages, respectively, by quantitative reverse transcription PCR (qRT-PCR), following 7 days of culture under variable but defined culture conditions (FIG. 2A).
Agonists or antagonists targeting major developmental pathways (e.g. TGF-β, BMP, Wnt, FGF, Hedgehog and Notch) were tested, together with hormonal inputs known to regulate PC or IC activity (aldosterone and vasopressin).

Wnt11-RFP UB organoid [2] = experiment: Withdrawal of individual components from UBCM (Stage IV validation); conditions: component withdrawn from UBCM
Source text: To determine whether UBCM culture conditions enabled clonal growth from a single UPC, dissociated E11.5 UBs were embedded at clonal density in Matrigel and cultured in UBCM medium. Around 30% of the single cells self-organized into E11.5 UB-like budding structures within 5 days, though a smaller percentage (3-5%) maintained Wnt11-RFP (FIG. 1G), an efficiency similar to clonal organoid formation for Lgr5^+ intestinal stem cells. Importantly, the clonally-derived Wnt11-RFP^+ budding structures were identical to intact E11.5 UB-derived organoids in both branching morphology and growth rate (Table 3, FIG. 1H).
Lastly, in Stage IV, we asked whether each of the components in UBCM was essential.

Wnt11-RFP UB = experiment: Stage II optimisation of individual UB medium components; conditions: titrated at 1, 3 and 6 μM
Source text: In Stage II, we optimized the individual medium components employed by Yuri et al. (FGF1, RA, CHIR99021, and GDNF). We first asked if each individual factor was necessary in the medium. […] Then we further optimized these factors. RA is known to be unstable in tissue culture, so we replaced it with another widely used small molecule RA substitute TTNPB. CHIR99021 was used at 1p M by Yuri et al., but based on our own experiences and literature, different doses of CHIR99021 often have different biological effects. So we titrated it from 1p M, 3p M, to 6 μM, from which we identified 3 μM to be the optimal concentration. […] GDNF was unchanged in the medium, considering its essential role in maintaining the UB progenitor population in vitro and in vivo.

Cc1cccc(-c2nn(C(=S)Nc3ccccc3)cc2-c2ccnc3ccccc23)n1 [A83-01]
Wnt11-RFP (Wnt11-RFP UB organoid [1]): Better

NC(=O)c1ncn([C@@H]2O[C@H](CO)[C@@H](O)[C@H]2O)c1N [AICAR]
Wnt11-RFP (Wnt11-RFP UB organoid [1]): Slighty Better

C[C@]12CCC(=O)C=C1CC[C@@H]1[C@@H]2[C@@H](O)C[C@]2(C=O)[C@@H](C(=O)CO)CC[C@@H]12 [Aldosterone]
Foxi1 expression (UB organoids): preferential increase

Cc1c[nH]c(-c2cnc(NCCNc3ccc(C#N)cn3)nc2-c2ccc(Cl)cc2Cl)n1 [CHIR99021]
Effect of withdrawal of the component from UBCM on organoid growth (Wnt11-RFP UB organoid [2]): growth arrest | Optimal concentration (Wnt11-RFP UB): 3 µM

C[C@H](NC(=O)Cc1cc(F)cc(F)c1)C(=O)N[C@H](C(=O)OC(C)(C)C)c1ccccc1 [DAPT]
Wnt11-RFP (Wnt11-RFP UB organoid [1]): Better | Aqp2 expression (UB organoids): dramatically increased | Foxi1 expression (UB organoids): dramatically increased

CC(C)(C)c1nc2c3cc[nH]c(=O)c3c3cc(F)ccc3c2[nH]1 [JAKI]
Effect when used individually (Wnt11-RFP UB organoid [1]): only marginal effects | Wnt11-RFP (Wnt11-RFP UB organoid [1]): Slightly Better | Aqp2 expression (UB organoids): dramatically increased | Foxi1 expression (UB organoids): dramatically increased

c1ccc2c(-c3cnn4cc(-c5ccc(N6CCNCC6)cc5)cnc34)ccnc2c1 [LDN193189]
Wnt11-RFP (Wnt11-RFP UB organoid [1]): Better

CN(C)C(=N)NC(=N)N [Melformin]
Wnt11-RFP (Wnt11-RFP UB organoid [1]): Slightly Better

O=C(NOC[C@H](O)CO)c1ccc(F)c(F)c1Nc1ccc(I)cc1F [PD0325901]
Organoid growth (Wnt11-RFP UB organoid [1]): No growth | Wnt11-RFP (Wnt11-RFP UB organoid [1]): Dead at D 6 | Aqp2 expression (UB organoids): dramatically increased | Foxi1 expression (UB organoids): dramatically increased

Oc1ccc(-c2nc(-c3ccncc3)c(-c3ccc(F)cc3)[nH]2)cc1 [S6202190]
Effect when used individually (Wnt11-RFP UB organoid [1]): only marginal effects | Wnt11-RFP (Wnt11-RFP UB organoid [1]): Slightly Better

NC(=O)CC[C@@H]1NC(=O)[C@H](Cc2ccccc2)NC(=O)[C@H](Cc2ccc(O)cc2)NC(=O)[C@@H](N)CSSC[C@@H](C(=O)N2CCC[C@H]2C(=O)N[C@@H](CCCN=C(N)N)C(=O)NCC(N)=O)NC(=O)[C@H](CC(N)=O)NC1=O [Vasopressin]
Aqp2 expression (UB organoids): enhanced

CN1C(=O)c2sccc2N(C)c2nc(Nc3ccc(S(N)(=O)=O)cc3)ncc21 [XMU-MP-1]
Organoid growth (Wnt11-RFP UB organoid [1]): No growth

Activin A: growth factor tested in screening
Organoid growth (Wnt11-RFP UB organoid [1]): Slower | Wnt11-RFP (Wnt11-RFP UB organoid [1]): Worse | Note (UB organoids): Dramatic

EGF: epidermal growth factor (NSDSECPLSHDGYCLHDGVCMYIEALDKYACNCVVGYIGERCQYRDLKWWELR; Epidermal growth factor; UniProt P01133 971-1023, looked up)
Wnt11-RFP (Wnt11-RFP UB organoid [1]): Better

FGF2: member of the FGF family
Wnt11-RFP (Wnt11-RFP UB organoid [1]): Worse

FGF20: member of the FGF family
Wnt11-RFP (Wnt11-RFP UB organoid [1]): Worse

Heparin
Wnt11-RFP (Wnt11-RFP UB organoid [1]): Slightly Better

SCF: growth factor tested in screening
Organoid growth (Wnt11-RFP UB organoid [1]): Slightly better | Wnt11-RFP (Wnt11-RFP UB organoid [1]): Better

Verteporfin
Organoid growth (Wnt11-RFP UB organoid [1]): Dead

From patent US20230340419A1, “METHODS FOR GENERATION OF MOUSE AND HUMAN URETERIC BUD ORGANOIDS AND COLLECTING DUCT ORGANOIDS” (University of Southern California, priority 2020, published 2023)
